Assay results taken from PubChem BioAssay AID248 (DTP/NCI, 2004).
Where “and” joins values, the source holds several entries; their conditions need not be identical. Equal entries are not always repeated. Inconclusive results and toxic doses are left out. Rule as the data show it: active = T/C of 150% or more; inactive = T/C below 125%.

Test system: L1210 leukemia ip in BDF1 mice, survival T/C
Experiment: NCI In Vivo Anticancer Drug Screen. Data for tumor model L1210 Leukemia (intraperitoneal) in B6D2F1 (BDF1) mice
Settings: endpoint: mean survival time, higher = longer survival
Summary of the method: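 Transplanted-tumor mice were given test agent; controls received vehicle only. Survival readings from the two groups were divided (treated over control).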

[1] = dose: 100.0 mg/kg/injection, schedule: Q01DX009 (ip), vehicle: Klucel (hydroxypropylcellulose) (HPC)
[2] = dose: 100.0 mg/kg/injection, schedule: Q04DX003 (ip), vehicle: Klucel (hydroxypropylcellulose) (HPC)
[3] = dose: 200.0 mg/kg/injection, schedule: Q01DX009 (ip), vehicle: Klucel (hydroxypropylcellulose) (HPC)
[4] = dose: 200.0 mg/kg/injection, schedule: Q04DX003 (ip), vehicle: Klucel (hydroxypropylcellulose) (HPC)
[5] = dose: 400.0 mg/kg/injection, schedule: Q01DX009 (ip), vehicle: Klucel (hydroxypropylcellulose) (HPC)
[6] = dose: 400.0 mg/kg/injection, schedule: Q04DX003 (ip), vehicle: Klucel (hydroxypropylcellulose) (HPC)
[7] = dose: 50.0 mg/kg/injection, schedule: Q01DX001 (ip), vehicle: carboxymethylcellulose (CMC)
[8] = dose: 100.0 mg/kg/injection, schedule: Q01DX001 (ip), vehicle: carboxymethylcellulose (CMC)
[9] = dose: 200.0 mg/kg/injection, schedule: Q01DX001 (ip), vehicle: carboxymethylcellulose (CMC)
[10] = dose: 400.0 mg/kg/injection, schedule: Q01DX001 (ip), vehicle: carboxymethylcellulose (CMC)
[11] = dose: 100.0 mg/kg/injection, schedule: Q01DX001 (ip), vehicle: saline
[12] = dose: 200.0 mg/kg/injection, schedule: Q01DX001 (ip), vehicle: saline
[13] = dose: 400.0 mg/kg/injection, schedule: Q01DX001 (ip), vehicle: saline
[14] = dose: 12.5 mg/kg/injection, schedule: Q01DX009 (ip), vehicle: saline
[15] = dose: 25.0 mg/kg/injection, schedule: Q01DX009 (ip), vehicle: saline
[16] = dose: 100.0 mg/kg/injection, schedule: Q01DX009 (ip), vehicle: saline
[17] = dose: 100.0 mg/kg/injection, schedule: Q04DX003 (ip), vehicle: saline
[18] = dose: 200.0 mg/kg/injection, schedule: Q04DX003 (ip), vehicle: saline
[19] = dose: 400.0 mg/kg/injection, schedule: Q04DX003 (ip), vehicle: saline
[20] = dose: 100.0 mg/kg/injection, schedule: Q04DX003 (ip), vehicle: saline with Tween-80
[21] = dose: 200.0 mg/kg/injection, schedule: Q04DX003 (ip), vehicle: saline with Tween-80
[22] = dose: 400.0 mg/kg/injection, schedule: Q04DX003 (ip), vehicle: saline with Tween-80

Measured: T/C

Cc1ccc(C)c(NS(=O)(=O)c2ccc(Cl)cc2)c1
inactive: [1] 102 % of control | [2] 107 % of control | [3] 98 % of control | [4] 113 % of control | [5] 98 % of control | [6] 113 % of control

CC(O)c1ccc2c(c1)Cc1ccccc1-2 (stereo not given)
inactive: [7] 104 % of control | [8] 91 % of control | [9] 91 % of control | [10] 91 % of control

CC1CCC(C(C)C)C(NCc2cc(Cl)cc(Cl)c2O)C1 (stereo not given)
inactive: [2] 104 % of control | [4] 101 % of control | [6] 97 % of control

O=c1oc2c([N+](=O)[O-])cc([N+](=O)[O-])cc2c2ccccc12
inactive: [7] 105 % of control | [8] 94 % of control | [9] 100 % of control | [10] 92 % of control

CC(=O)O[C@H]1CC[C@]2(C)[C@H]3CC[C@]4(C)[C@@H](OC(C)=O)CC[C@H]4[C@@H]3[C@@H](C)[C@]2(O)C1
inactive: dose: 50.0 mg/kg/injection, schedule: Q01DX001 (sc), vehicle: steriod suspending solution 102 % of control | dose: 100.0 mg/kg/injection, schedule: Q01DX001 (sc), vehicle: steriod suspending solution 100 % of control | dose: 200.0 mg/kg/injection, schedule: Q01DX001 (sc), vehicle: steriod suspending solution 102 % of control | dose: 400.0 mg/kg/injection, schedule: Q01DX001 (sc), vehicle: steriod suspending solution 105 % of control

CCOC(=O)c1ccc(N=Cc2cc(Cl)cc(Cl)c2O)cc1
inactive: [11] 95 % of control | [12] 100 % of control | [13] 93 % of control

CCOc1cc(C2=NNc3n[nH]c(=S)n3N2)ccc1O
inactive: [1] 94 % of control | [2] 96 % of control | [3] 98 % of control | [4] 103 % of control | [5] 97 % of control | [6] 102 % of control

C=CCNP(=O)(OCC)OCC
inactive: [14] 101 % of control | dose: 12.5 mg/kg/injection, schedule: Q04DX003 (ip), vehicle: saline 104 % of control | [15] 87 % of control | dose: 25.0 mg/kg/injection, schedule: Q04DX003 (ip), vehicle: saline 104 % of control | dose: 50.0 mg/kg/injection, schedule: Q04DX003 (ip), vehicle: saline 104 % of control | [16] 104 % of control | [17] 101 % of control | dose: 200.0 mg/kg/injection, schedule: Q01DX009 (ip), vehicle: saline 109 % of control | [18] 115 % of control

CN(C)C(=O)C1C2C=CC(C3CC23)C1C(=O)N(C)C (stereo not given)
inactive: [17] 95 % of control | [18] 90 % of control | [19] 95 % of control

O=C(CCCN1CCC(n2c(=O)[nH]c3ccccc32)CC1)c1ccc(F)cc1
inactive: dose: 6.25 mg/kg/injection, schedule: Q01DX009 (ip), vehicle: Klucel (hydroxypropylcellulose) (HPC) 92 % of control | dose: 12.5 mg/kg/injection, schedule: Q01DX009 (ip), vehicle: Klucel (hydroxypropylcellulose) (HPC) 113 % of control | [14] 102 % of control | dose: 25.0 mg/kg/injection, schedule: Q01DX009 (ip), vehicle: Klucel (hydroxypropylcellulose) (HPC) 120 % of control | [15] 110 % of control | dose: 25.0 mg/kg/injection, schedule: Q04DX003 (ip), vehicle: Klucel (hydroxypropylcellulose) (HPC) 98 % of control and 90 % of control | dose: 50.0 mg/kg/injection, schedule: Q01DX009 (ip), vehicle: Klucel (hydroxypropylcellulose) (HPC) 96 % of control | dose: 50.0 mg/kg/injection, schedule: Q01DX009 (ip), vehicle: saline 93 % of control | dose: 50.0 mg/kg/injection, schedule: Q04DX003 (ip), vehicle: Klucel (hydroxypropylcellulose) (HPC) 96 % of control | [16] 93 % of control | [2] 91 % of control and 111 % of control | [4] 110 % of control | [6] 97 % of control

OCCN(CCO)CCN1c2ccccc2Sc2ccccc21
inactive: dose: 5.0 mg/kg/injection, schedule: Q01DX001 (ip), vehicle: saline 95 % of control | dose: 10.0 mg/kg/injection, schedule: Q01DX001 (ip), vehicle: saline 97 % of control | dose: 20.0 mg/kg/injection, schedule: Q01DX001 (ip), vehicle: saline 92 % of control | dose: 40.0 mg/kg/injection, schedule: Q01DX001 (ip), vehicle: saline 95 % of control | dose: 80.0 mg/kg/injection, schedule: Q01DX001 (ip), vehicle: saline 95 % of control | [11] 96 % of control | [12] 112 % of control

CCOC(=O)/C(C#N)=C1\CCC=C(C)C1
inactive: dose: 75.0 mg/kg/injection, schedule: Q01DX001 (ip), vehicle: other 97 % of control | dose: 150.0 mg/kg/injection, schedule: Q01DX001 (ip), vehicle: other 102 % of control | dose: 300.0 mg/kg/injection, schedule: Q01DX001 (ip), vehicle: other 98 % of control

CC(=O)Oc1cc(-c2ccccc2)c(OC(C)=O)cc1-c1ccccc1
inactive: dose: 25.0 mg/kg/injection, schedule: Q01DX009 (ip), vehicle: water 96 % of control | dose: 50.0 mg/kg/injection, schedule: Q01DX009 (ip), vehicle: water 101 % of control | dose: 100.0 mg/kg/injection, schedule: Q01DX009 (ip), vehicle: water 94 % of control | dose: 200.0 mg/kg/injection, schedule: Q01DX009 (ip), vehicle: water 101 % of control | dose: 400.0 mg/kg/injection, schedule: Q01DX009 (ip), vehicle: water 100 % of control

S=C1NCC2CCc3c(ccc4ccccc34)N12 (stereo not given)
inactive: dose: 100.0 mg/kg/injection, schedule: Q01DX001 (ip), vehicle: other 97 % of control | dose: 200.0 mg/kg/injection, schedule: Q01DX001 (ip), vehicle: other 90 % of control | dose: 400.0 mg/kg/injection, schedule: Q01DX001 (ip), vehicle: other 95 % of control

CCOP(=O)(OCC)Oc1ccccc1
inactive: [17] 91 % of control | [18] 92 % of control | [19] 94 % of control

CC(=O)OCC1OC(SSCc2ccccc2)C(OC(C)=O)C(OC(C)=O)C1OC(C)=O (stereo not given)
inactive: [11] 96 % of control | [12] 93 % of control | [13] 93 % of control

Cc1ccc(S(=O)(=O)NC(=O)NCCCOC(C)C)cc1
inactive: [20] 98 % of control | [21] 94 % of control | [22] 96 % of control

O=C1c2ccccc2-c2cc(Br)c(NC(=O)C(F)(F)F)cc21
inactive: [20] 108 % of control | [21] 105 % of control | [22] 100 % of control

CC(NP1(=O)OCC(C)(N)CO1)c1ccccc1 (stereo not given)
inactive: dose: 50.0 mg/kg/injection, schedule: Q01DX001 (ip), vehicle: saline 108 % of control | [11] 102 % of control | [12] 106 % of control | [13] 93 % of control

CC(=O)N[Si](C)(C)C
inactive: [11] 102 % of control | [12] 100 % of control | [13] 98 % of control

NC1=C(Sc2ccccc2)C(=O)c2ccccc2C1=O
inactive: dose: 100.0 mg/kg/injection, schedule: Q01DX001 (ip), vehicle: saline with Tween-80 105 % of control | dose: 200.0 mg/kg/injection, schedule: Q01DX001 (ip), vehicle: saline with Tween-80 94 % of control | dose: 400.0 mg/kg/injection, schedule: Q01DX001 (ip), vehicle: saline with Tween-80 94 % of control
